Like-named read-outs stand apart in the source and are kept apart here.
How the values were obtained:
[1] = system: 3A6; experiment: steady-state hydrolysis kinetics, Hanes-Woolf plot; assay type: biochemical; settings: read-out: 3A6 / Km; 100 mM Tris-sulfate, pH 8.5, 40 °C, enzyme 0-12 nM
[2] = system: 3A6; experiment: steady-state hydrolysis kinetics, Hanes-Woolf plot; assay type: biochemical; settings: read-out: 3A6I / Km; 100 mM Tris-sulfate, pH 8.5, 40 °C, enzyme 0-12 nM

SMILES | Km [1] [µM] | Km [2] [µM]
CCCCCC(=O)Oc1ccc([N+](=O)[O-])cc1 [p-Nitrophenyl hexanoate] | 1530 ± 90 | –
CCC(=O)Oc1ccc([N+](=O)[O-])cc1 [p-Nitrophenyl propionate] | 150 ± 90 | –
COc1cc(/C=C/C(=O)OC[C@@H]2O[C@@H](Oc3ccc([N+](=O)[O-])cc3)[C@H](O)[C@H]2O)ccc1O [Nph-5-Fe-Araf, p‐nitrophenyl 5‐O‐trans‐feruloyl‐α‐L‐arabinofuranoside] | 970 ± 30 | –
COC(=O)/C=C/c1ccc(O)cc1 [Methyl p-coumarate] | 1550 ± 110 | –
COc1cc(/C=C/C(=O)OC[C@@H]2O[C@@H](O[C@@H]3[C@@H](O)[C@H](O[C@@H]4COC(O)[C@H](O)[C@H]4O)OC[C@H]3O)[C@H](O)[C@H]2O)ccc1O (stereo partly drawn) [FAXX, (5‐O‐(trans‐feruloyl)‐α‐L‐arabinofuranosyl)‐(1,3)‐β‐D‐xylopyranosyl‐(1,4)‐D‐xylopyranose] | 1960 ± 370 | –
COC(=O)/C=C/c1ccc(O)c(OC)c1 [Methyl ferulate] | 2340 ± 370 | –
CC(=O)Oc1ccc([N+](=O)[O-])cc1 [p-Nitrophenyl acetate] | 180 ± 90 | 3480 ± 210
CCCC(=O)Oc1ccc([N+](=O)[O-])cc1 [p-Nitrophenyl butyrate] | 240 ± 20 | 890 ± 70
COC(=O)/C=C/c1cc(OC)c(O)c(OC)c1 [Methyl sinapinate] | 400 ± 80 | –
